The results in this text go back to ChEMBL document CHEMBL5126521, “Analgesic Opioid Ligand Discovery Based on Nonmorphinan Scaffolds Derived from Natural Sources” (J Med Chem, 2022).

The target of series [1] is T1, Delta-type opioid receptor (Homo sapiens, UniProt P41143). As to the kind of experiment: Binding affinity to DOP (unknown origin).
Series [2] addresses T2, Mu-type opioid receptor (Homo sapiens, UniProt P35372). In words: Inhibition of MOP (unknown origin).
The target in series [3] is T1, Delta-type opioid receptor. As to the kind of experiment: Inhibition of DOP (unknown origin).
For series [4], the target named is T3, Kappa-type opioid receptor (Homo sapiens, UniProt P41145). In words: Inhibition of KOP (unknown origin).
Series [5] deals with Mus musculus. As to the kind of experiment: Antinociceptive activity in ip dosed mouse assessed as tail flick latency. Format: functional. A general note: Hot-plate and tail-flick tests time the reaction to a heat stimulus.
A short description of series [6]: Toxicity in ip dosed mouse assessed as antinociceptive tolerance. The note with it: in vivo. Format: organism-based.
The target in series [7] is T3, Kappa-type opioid receptor. In words: Agonist activity at KOP (unknown origin). Format: functional.
The test system of series [8] is Mus musculus. As to the kind of experiment: Antinociceptive activity in po dosed mouse by tail flick assay. In kind it is functional.
Series [9] addresses T2, Mu-type opioid receptor. In words: Binding affinity to MOP (unknown origin).
For series [10], the target named is Mu-type opioid receptor (Cavia porcellus, UniProt P97266). In words: Displacement of [3H]DAMGO from guinea pig brain membrane MOP incubated for 1 hr by scintillation counter analysis. In kind it is cell membranes.
Series [11] can be described thus: Displacement of [3H]naltrindole from guinea pig brain membrane DOP incubated for 3 hr by scintillation counter analysis. Format: cell membranes, Cavia porcellus.
In series [12] the target is T2, Mu-type opioid receptor. As to the kind of experiment: Agonist activity at MOP (unknown origin). In kind it is functional.
The target of series [13] is Kappa-type opioid receptor (Cavia porcellus, UniProt P41144). As to the kind of experiment: Displacement of [3H]U69593 from guinea pig brain membrane KOP incubated for 1 hr by scintillation counter analysis. In kind it is cell membranes. (In a radioligand displacement assay an active substance lowers the binding of a labelled ligand.)
Series [14] has as its target Delta-type opioid receptor (Mus musculus, UniProt P32300). In words: Inhibition of mouse DOP.
Series [15] concerns the target Kappa-type opioid receptor (Mus musculus, UniProt P33534). In words: Inhibition of mouse KOP.
Series [16] relates to Mus musculus. In words: Antinociceptive activity in sc dosed mouse by tail flick assay. Format: functional.
The test system of series [17] is Mus musculus. In words: Antinociceptive activity in po dosed mouse by hot plate assay. In kind it is functional.
For series [18], the system named is Mus musculus. In words: Antinociceptive activity in sc dosed mouse by hot plate assay. Format: functional.
Series [19] has as its system Mus musculus. In words: Antinociceptive activity in po dosed mouse. Format: functional.
Series [20] relates to Mus musculus. As to the kind of experiment: Antinociceptive activity in sc dosed visceral pain mouse model. Format: functional.
Series [21] in a line: Toxicity in po dosed mouse assessed as antinociceptive activity tolerance by tail flick assay. Format: organism-based. The note with it: in vivo.
Series [22] can be described thus: Toxicity in sc dosed mouse assessed as antinociceptive activity tolerance by tail flick assay. The note with it: in vivo. In kind it is organism-based.
Series [23] in a line: Toxicity in po dosed mouse assessed as antinociceptive activity tolerance by hot plate assay. In kind it is organism-based. The note with it: in vivo.
In series [24] the test system is Mus musculus. In words: Antinociceptive activity in po dosed visceral pain mouse model. Format: functional.
Series [25] deals with Mus musculus. In words: Antinociceptive activity in sc dosed mouse. In kind it is functional.

T1 sequence (P41143 whole entry): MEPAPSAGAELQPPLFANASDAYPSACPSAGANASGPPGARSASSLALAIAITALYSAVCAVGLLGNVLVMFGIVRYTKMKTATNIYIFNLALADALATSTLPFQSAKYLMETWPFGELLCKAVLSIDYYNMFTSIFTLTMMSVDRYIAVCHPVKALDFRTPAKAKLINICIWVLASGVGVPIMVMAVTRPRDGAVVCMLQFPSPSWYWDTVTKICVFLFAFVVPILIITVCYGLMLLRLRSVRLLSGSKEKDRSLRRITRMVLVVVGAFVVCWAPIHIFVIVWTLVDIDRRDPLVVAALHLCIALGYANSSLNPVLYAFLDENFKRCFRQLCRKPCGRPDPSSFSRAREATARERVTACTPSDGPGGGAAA
T2 sequence (P35372 whole entry): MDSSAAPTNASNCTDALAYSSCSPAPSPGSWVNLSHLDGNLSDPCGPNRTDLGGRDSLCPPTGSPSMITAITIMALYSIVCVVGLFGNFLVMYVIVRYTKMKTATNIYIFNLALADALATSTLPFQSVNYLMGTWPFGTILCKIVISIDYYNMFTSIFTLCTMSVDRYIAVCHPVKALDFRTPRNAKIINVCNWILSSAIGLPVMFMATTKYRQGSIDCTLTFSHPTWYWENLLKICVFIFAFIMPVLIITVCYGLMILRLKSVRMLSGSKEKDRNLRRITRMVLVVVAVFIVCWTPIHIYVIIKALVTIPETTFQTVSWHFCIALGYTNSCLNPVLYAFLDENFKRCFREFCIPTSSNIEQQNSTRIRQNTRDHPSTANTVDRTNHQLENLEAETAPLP
T3 sequence (P41145 whole entry): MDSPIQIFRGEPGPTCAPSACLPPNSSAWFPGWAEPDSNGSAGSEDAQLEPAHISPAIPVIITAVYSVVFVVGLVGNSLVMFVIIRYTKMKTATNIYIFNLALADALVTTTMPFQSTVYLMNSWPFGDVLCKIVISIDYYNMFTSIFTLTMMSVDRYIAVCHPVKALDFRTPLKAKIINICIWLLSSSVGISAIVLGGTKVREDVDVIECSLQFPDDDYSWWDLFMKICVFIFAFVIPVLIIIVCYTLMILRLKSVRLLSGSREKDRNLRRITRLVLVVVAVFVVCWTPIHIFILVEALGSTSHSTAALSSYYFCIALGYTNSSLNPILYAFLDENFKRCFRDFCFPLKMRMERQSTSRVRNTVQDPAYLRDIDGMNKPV
Sequence of Kappa-type opioid receptor (Cavia porcellus, UniProt P41144) (P41144 whole entry): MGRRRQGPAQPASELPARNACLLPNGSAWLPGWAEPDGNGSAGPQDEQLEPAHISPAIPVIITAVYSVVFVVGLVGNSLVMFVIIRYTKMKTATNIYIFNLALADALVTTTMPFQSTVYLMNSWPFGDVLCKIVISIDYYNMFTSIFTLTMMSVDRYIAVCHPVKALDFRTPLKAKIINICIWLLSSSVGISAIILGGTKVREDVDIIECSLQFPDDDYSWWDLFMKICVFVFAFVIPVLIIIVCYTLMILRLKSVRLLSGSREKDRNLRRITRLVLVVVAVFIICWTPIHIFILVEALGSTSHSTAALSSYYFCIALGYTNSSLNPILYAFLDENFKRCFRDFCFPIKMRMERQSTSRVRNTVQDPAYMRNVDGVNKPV
Sequence of Mu-type opioid receptor (Cavia porcellus, UniProt P97266) (P97266 whole entry): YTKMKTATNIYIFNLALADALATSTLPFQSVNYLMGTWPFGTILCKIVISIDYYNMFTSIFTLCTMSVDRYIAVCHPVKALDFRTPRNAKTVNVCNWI
Sequence of Kappa-type opioid receptor (Mus musculus, UniProt P33534) (P33534 whole entry): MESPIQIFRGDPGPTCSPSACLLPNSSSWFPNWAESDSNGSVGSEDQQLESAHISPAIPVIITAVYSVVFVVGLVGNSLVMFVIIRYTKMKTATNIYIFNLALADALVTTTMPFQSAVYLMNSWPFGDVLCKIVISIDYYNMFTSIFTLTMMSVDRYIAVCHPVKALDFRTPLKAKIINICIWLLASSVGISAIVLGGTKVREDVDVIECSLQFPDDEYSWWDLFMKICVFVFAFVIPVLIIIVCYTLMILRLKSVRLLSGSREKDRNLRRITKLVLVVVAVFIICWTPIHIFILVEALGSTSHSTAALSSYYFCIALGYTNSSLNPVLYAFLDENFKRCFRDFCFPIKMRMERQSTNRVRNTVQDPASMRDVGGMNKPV
Sequence of Delta-type opioid receptor (Mus musculus, UniProt P32300) (P32300 whole entry): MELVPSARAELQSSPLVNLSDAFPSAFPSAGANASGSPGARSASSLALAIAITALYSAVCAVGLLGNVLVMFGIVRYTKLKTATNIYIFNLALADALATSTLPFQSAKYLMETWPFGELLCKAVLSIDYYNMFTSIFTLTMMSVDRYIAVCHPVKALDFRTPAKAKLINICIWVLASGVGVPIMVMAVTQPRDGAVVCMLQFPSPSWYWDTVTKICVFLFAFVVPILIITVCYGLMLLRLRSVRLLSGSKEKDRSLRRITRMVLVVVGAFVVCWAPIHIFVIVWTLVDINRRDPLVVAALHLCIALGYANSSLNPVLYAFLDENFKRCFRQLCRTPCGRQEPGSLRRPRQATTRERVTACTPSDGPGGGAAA

For orientation: Ki means the dissociation constant of the complex between target and ligand, obtained from inhibition or displacement. A word on the IC50: it is the point on the concentration scale where inhibition reaches its midpoint. In series [1], `C=C[C@H]1CN2CCc3c([nH]c4cccc(OC)c34)[C@@H]2C[C@@H]1/C(=C\OC)C(=O)OC` had a Ki above 10000 nM. The IC50 in series [2] was 2200 nM; in [3] it was above 10000 nM; in [4], 10000 nM.
By ED50 is commonly meant the dose that gives a 50% effect, or the effect in half of the subjects. With `COC(=O)[C@@H]1C=C(OC(=O)c2ccccc2)C(=O)[C@H]2[C@@]1(C)CC[C@H]1C(=O)O[C@H](c3ccoc3)C[C@]21C`, the results for the ED50 in series [5] and in series [6] were 5 mg/kg and 7.9 mg/kg, respectively.
The term EC50 denotes the concentration at which the effect is half-maximal. Consider `CC[C@@H]1CN2CCc3c([nH]c4cccc(OC)c34)[C@@H]2C[C@@H]1/C(=C\OC)C(=O)OC`, for which, in series [1], the inhibitory constant (Ki) was above 10000 nM. In series [3], this compound yielded an IC50 above 10000 nM. The EC50 in series [7] was 8500 nM. In series [8], this compound displayed an ED50 of 2.1 mg/kg.
On to `CC[C@@H]1CN2CC[C@]3(O)c4c(cccc4OC)NC3[C@@H]2C[C@@H]1/C(=C\OC)C(=O)OC` (some centres undefined), for which the Ki in series [9] was 47 nM; in [1] it was 219 nM; in series [10], 11 nM; in series [11], 96 nM; in series [13] it was 85 nM. This compound had an EC50 in series [12] of 34.5 nM. Further, the IC50 in series [14] was 10000 nM; in series [15], 7900 nM; in [3], 2520 nM; in series [4], 691 nM. Moreover, the ED50 turned out to be 4.4 mg/kg in series [8]; 0.8 mg/kg in series [16]; 2.2 mg/kg in series [17]; 0.93 mg/kg in series [18]; 1.1 mg/kg in [19]; 0.15 mg/kg in series [20]. Moreover, the results for the ED50 in series [21] and in [22] were 7.5 mg/kg and 1.19 mg/kg, respectively.
As to `CC[C@@H]1CN2CC[C@@]34OCCO[C@@]3(Nc3ccc(F)c(OC)c34)[C@@H]2C[C@@H]1/C(=C\OC)C(=O)OC`, the Ki in [10] stood at 7.3 nM; in series [11], 350 nM; in [13], 18 nM. Further, the ED50 in [23] stood at 1.3 mg/kg; in series [8], 2.8 mg/kg; in series [16], 0.6 mg/kg; in series [17], 3 mg/kg; in [18], 0.7 mg/kg; in [21] it was 11.1 mg/kg. For the same compound, the ED50 in series [24] is 0.6 mg/kg; in series [25], 0.1 mg/kg.
